Like-named read-outs stand apart in the source and are kept apart here. *1 amine or outer side, *2 acyl side, *3 side chain or, on linkers, in order; H or OH if unused. Where a SMILES comes first, the peptide text is derived from it. Bridges are numbered along the chain shown (N, C = ends). [ ]: non-standard residue; d: D form. The star is where a group is joined. C20 diacid = O=C(O)CCCCCCCCCCCCCCCCCCC(=O)*; γGlu = O=C(O)[C@H](CCC(=O)[*:2])N[*:1]; Hyp = O=C(O)[C@@H]1C[C@@H](O)CN1; NMeI = CC[C@H](C)[C@H](NC)C(=O)O; Aad = N[C@@H](CCCC(=O)O)C(=O)O; Sar = CNCC(=O)O
Legend:
[1] = Assessment of chemical stability (RP-HPLC normalized purity); type: physicochemical; details: for Normalized purity after 7 days, 40° C., pH 4: pH 4, 0.2 mg/ml; for Normalized purity after 7 days, 40° C., pH 4 / Normalized purity after 7 days, 40° C., pH 6 / Normalized purity after 7 days, 40° C., pH 7.5 / Normalized purity after 7 days, 40° C., pH 9: Table 1; for Normalized purity after 7 days, 40° C., pH 6: pH 6, 0.2 mg/ml; for Normalized purity after 7 days, 40° C., pH 7.5: pH 7.5, 0.2 mg/ml; for Normalized purity after 7 days, 40° C., pH 9: pH 9, 0.2 mg/ml
In short: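 Purity after 7 days at 40° C is expressed relative to T=0 (set to 100) for each pH. Samples at 0.2 mg/ml, pH 4, 6, 7.5 or 9, analyzed by RP-HPLC with UV 220 nm on C8 (ammonium formate) or C18 (TFA) gradients.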

[2] = molecular target: T1, human amylin receptor 3 (hAMYR3), hCTR2 co-expressed with hRAMP3 (Homo sapiens, UniProt O60896+P30988); assay: hAMYR3 cAMP assay (AlphaScreen) in COS7 cells; type: cell-based
T1 construct: expressed in transfected cells
T1 sequence (P30988 25-474): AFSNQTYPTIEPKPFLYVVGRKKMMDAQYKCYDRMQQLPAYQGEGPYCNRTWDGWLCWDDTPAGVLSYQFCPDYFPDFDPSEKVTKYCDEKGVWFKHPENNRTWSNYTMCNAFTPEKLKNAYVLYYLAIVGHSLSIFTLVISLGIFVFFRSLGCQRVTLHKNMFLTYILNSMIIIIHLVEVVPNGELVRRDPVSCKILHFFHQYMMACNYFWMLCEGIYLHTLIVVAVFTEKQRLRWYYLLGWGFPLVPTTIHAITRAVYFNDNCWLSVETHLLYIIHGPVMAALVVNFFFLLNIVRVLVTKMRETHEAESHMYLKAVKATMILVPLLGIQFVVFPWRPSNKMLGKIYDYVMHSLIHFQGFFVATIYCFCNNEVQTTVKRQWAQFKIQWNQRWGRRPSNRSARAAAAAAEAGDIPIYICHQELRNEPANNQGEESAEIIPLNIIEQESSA
T1 sequence (O60896 24-148 partner): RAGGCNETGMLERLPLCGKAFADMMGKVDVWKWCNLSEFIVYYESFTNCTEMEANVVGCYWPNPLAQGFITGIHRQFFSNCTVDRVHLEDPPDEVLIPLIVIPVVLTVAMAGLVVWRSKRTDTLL
In short: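 EC50 values derive from 4PL curve fits of cAMP (AlphaScreen) in lysates of RAMP-naive COS7 cells stably carrying hCTR2 plus hRAMP3. Peptide dilution series were applied for 15 min at 37 °C in pH 7.4 Tyrode buffer containing 100 µM IBMX and 0.1% casein.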

[3] = molecular target: T2, human calcitonin receptor (hCTR2) (Homo sapiens, UniProt P30988); assay: hCTR2 cAMP assay (AlphaScreen) in COS7 cells; type: cell-based
T2 construct: expressed in transfected cells
T2 sequence (P30988 25-474): T1 sequence (P30988 25-474)
In short: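 cAMP induction, read by AlphaScreen after lysis, gives EC50 values via 4PL curve fitting. Peptides were applied at rising concentrations for 15 min at 37 °C, with IBMX and 0.1% casein in HEPES-buffered Tyrode pH 7.4, to COS7 cells (no endogenous RAMPs) stably expressing human CTR2.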

[4] = cAMP induction, COS7 cells expressing hAMYR3, Table 1, read-out: hAMYR3 EC50
[5] = cAMP induction, COS7 cells expressing hCTR2, Table 1, read-out: hCTR2 EC50

Normalized purity after 7 days, 40° C., pH 4 [1]	Normalized purity after 7 days, 40° C., pH 6 [1]	Normalized purity after 7 days, 40° C., pH 7.5 [1]	Normalized purity after 7 days, 40° C., pH 9 [1]	EC50 [2, 4] [nM]	EC50 [3, 5] [nM]	Compound	Normalized purity pH 4 (Table 5) ([1]; pH 4, repeat of Example 6 for pairs with/without Asn-Asn at 21-22)	Normalized purity pH 6 (Table 5) ([1]; pH 6, repeat of Example 6 for pairs with/without Asn-Asn at 21-22)	Normalized purity pH 7.5 (Table 5) ([1]; pH 7.5, repeat of Example 6 for pairs with/without Asn-Asn at 21-22)	Normalized purity pH 9 (Table 5) ([1]; pH 9, repeat of Example 6 for pairs with/without Asn-Asn at 21-22)	EC50 [2] [nM]	EC50 [3] [nM]
–	–	–	–	–	–	CC[C@H](C)[C@@H](C(=O)N[C@@H](CC(C)C)C(=O)N[C@@H](CO)C(=O)N[C@@H](CO)C(=O)N[C@H](C(=O)N[C@@H](CCC(=O)O)C(=O)N[C@H](C(=O)NCC(=O)N[C@@H](CO)C(=O)N[C@@H](CC(N)=O)C(=O)N[C@H](C(=O)N1C[C@H](O)C[C@H]1C(N)=O)[C@@H](C)O)C(C)C)[C@@H](C)O)N(C)C(=O)[C@H](C)NC(=O)CN(C)C(=O)[C@H](Cc1ccccc1)NC(=O)[C@H](CC(N)=O)NC(=O)[C@H](CC(N)=O)NC(=O)[C@H](CO)NC(=O)[C@H](CO)NC(=O)[C@H](CCCNC(=N)N)NC(=O)[C@H](CCC(N)=O)NC(=O)[C@H](CC(C)C)NC(=O)[C@H](Cc1ccccc1)NC(=O)[C@H](CCCC(=O)O)NC(=O)[C@H](C)NC(=O)[C@H](CC(C)C)NC(=O)[C@H](CCCNC(=N)N)NC(=O)[C@H](CC(=O)O)NC(=O)[C@@H](NC(=O)[C@H](C)NC(=O)[C@@H]1CSSC[C@H](NC(=O)[C@H](CCCNC(=N)N)NC(=O)CC[C@H](NC(=O)CCCCCCCCCCCCCCCCCCC(=O)O)C(=O)O)C(=O)N[C@@H](CCC(N)=O)C(=O)N[C@@H]([C@@H](C)O)C(=O)N[C@@H](C)C(=O)N[C@@H]([C@@H](C)O)C(=O)N1)[C@@H](C)O [Compound 100, [19CD]-isoGlu-R-C( )-QTAT-C( )-ATDRLA-Aad-FLQRSSNNF-Gly(Me)-A-Ile(Me)-LSSTEVGSNT-Hyp-NH2, reference compound] ({C20 diacid-γGlu}-RCQTATCATDRLA[Aad]FLQRSSNNF[Sar]A[NMeI]LSSTEVGSNT[Hyp]-NH2; disulfide 2-7)	A (A = >90%)	A (A = >90%)	A (A = >90%)	B (B = 70-90%)	0.53	2.2
A (A = >90%)	A (A = >90%)	A (A = >90%)	A (A = >90%)	0.15	0.1	CC[C@H](C)[C@@H](C(=O)N[C@@H](CC(C)C)C(=O)N[C@@H](CO)C(=O)N[C@@H](CO)C(=O)N[C@H](C(=O)N[C@@H](CCC(=O)O)C(=O)N[C@H](C(=O)NCC(=O)N[C@@H](CO)C(=O)N[C@@H](CC(N)=O)C(=O)N[C@H](C(=O)N1C[C@H](O)C[C@H]1C(N)=O)[C@@H](C)O)C(C)C)[C@@H](C)O)N(C)C(=O)[C@H](C)NC(=O)CN(C)C(=O)[C@H](Cc1ccccc1)NC(=O)[C@H](CO)NC(=O)[C@H](CO)NC(=O)[C@H](CCCNC(=N)N)NC(=O)[C@H](CCC(N)=O)NC(=O)[C@H](CC(C)C)NC(=O)[C@H](Cc1ccccc1)NC(=O)[C@H](CCCC(=O)O)NC(=O)[C@H](C)NC(=O)[C@H](CC(C)C)NC(=O)[C@H](CCCNC(=N)N)NC(=O)[C@H](CCC(N)=O)NC(=O)[C@@H](NC(=O)[C@H](C)NC(=O)[C@@H]1CSSC[C@H](NC(=O)[C@H](CCCNC(=N)N)NC(=O)CC[C@H](NC(=O)CCCCCCCCCCCCCCCCCCC(=O)O)C(=O)O)C(=O)N[C@@H](CC(N)=O)C(=O)N[C@@H]([C@@H](C)O)C(=O)N[C@@H](C)C(=O)N[C@@H]([C@@H](C)O)C(=O)N1)[C@@H](C)O [Compound 86, [19CD]-isoGlu-R-C( )-NTAT-C( )-ATQRLA-Aad-FLQRSSF-Gly(Me)-A-Ile(Me)-LSSTEVGSNT-Hyp-NH2] ({C20 diacid-γGlu}-RCNTATCATQRLA[Aad]FLQRSSF[Sar]A[NMeI]LSSTEVGSNT[Hyp]-NH2; disulfide 2-7)	–	–	–	–	–	–
A (A = >90%)	A (A = >90%)	A (A = >90%)	A (A = >90%)	0.2	0.18	CC[C@H](C)[C@@H](C(=O)N[C@@H](CC(C)C)C(=O)N[C@@H](CO)C(=O)N[C@@H](CO)C(=O)N[C@H](C(=O)N[C@@H](CCC(=O)O)C(=O)N[C@H](C(=O)NCC(=O)N[C@@H](CO)C(=O)N[C@@H](CC(N)=O)C(=O)N[C@H](C(=O)N1C[C@H](O)C[C@H]1C(N)=O)[C@@H](C)O)C(C)C)[C@@H](C)O)N(C)C(=O)[C@H](C)NC(=O)CN(C)C(=O)[C@H](Cc1ccccc1)NC(=O)[C@H](CCCNC(=N)N)NC(=O)[C@H](CCC(N)=O)NC(=O)[C@H](CC(C)C)NC(=O)[C@H](Cc1ccccc1)NC(=O)[C@H](CCCC(=O)O)NC(=O)[C@H](C)NC(=O)[C@H](CC(C)C)NC(=O)[C@H](CCCNC(=N)N)NC(=O)[C@H](CC(=O)O)NC(=O)[C@@H](NC(=O)[C@H](C)NC(=O)[C@@H]1CSSC[C@H](NC(=O)[C@H](CCCNC(=N)N)NC(=O)CC[C@H](NC(=O)CCCCCCCCCCCCCCCCCCC(=O)O)C(=O)O)C(=O)N[C@@H](CCC(N)=O)C(=O)N[C@@H]([C@@H](C)O)C(=O)N[C@@H](C)C(=O)N[C@@H]([C@@H](C)O)C(=O)N1)[C@@H](C)O [Compound 95, [19CD]-isoGlu-R-C( )-QTAT-C( )-ATDRLA-Aad-FLQRF-Gly(Me)-A-Ile(Me)-LSSTEVGSNT-Hyp-NH2] ({C20 diacid-γGlu}-RCQTATCATDRLA[Aad]FLQRF[Sar]A[NMeI]LSSTEVGSNT[Hyp]-NH2; disulfide 2-7)	–	–	–	–	–	–

Compound	Normalized purity after 7 days, 40° C., pH 4 [1]	Normalized purity after 7 days, 40° C., pH 6 [1]	Normalized purity after 7 days, 40° C., pH 7.5 [1]	Normalized purity after 7 days, 40° C., pH 9 [1]	EC50 [2, 4] [nM]	EC50 [3, 5] [nM]	Normalized purity pH 4 (Table 5) ([1]; pH 4, repeat of Example 6 for pairs with/without Asn-Asn at 21-22)	Normalized purity pH 6 (Table 5) ([1]; pH 6, repeat of Example 6 for pairs with/without Asn-Asn at 21-22)	Normalized purity pH 7.5 (Table 5) ([1]; pH 7.5, repeat of Example 6 for pairs with/without Asn-Asn at 21-22)	Normalized purity pH 9 (Table 5) ([1]; pH 9, repeat of Example 6 for pairs with/without Asn-Asn at 21-22)	EC50 [2] [nM]	EC50 [3] [nM]
CC[C@H](C)[C@@H](C(=O)N[C@@H](CC(C)C)C(=O)N[C@@H](CO)C(=O)N[C@@H](CO)C(=O)N[C@H](C(=O)N[C@@H](CCC(=O)O)C(=O)N[C@H](C(=O)NCC(=O)N[C@@H](CO)C(=O)N[C@@H](CC(N)=O)C(=O)N[C@H](C(=O)N1CCC[C@H]1C(N)=O)[C@@H](C)O)C(C)C)[C@@H](C)O)N(C)C(=O)[C@H](C)NC(=O)CN(C)C(=O)[C@H](Cc1ccccc1)NC(=O)[C@H](CO)NC(=O)[C@H](CO)NC(=O)[C@H](CCCNC(=N)N)NC(=O)[C@H](CCC(N)=O)NC(=O)[C@H](CC(C)C)NC(=O)[C@H](Cc1ccccc1)NC(=O)[C@H](CC(=O)O)NC(=O)[C@H](C)NC(=O)[C@H](CC(C)C)NC(=O)[C@H](CCCNC(=N)N)NC(=O)[C@H](CCC(N)=O)NC(=O)[C@@H](NC(=O)[C@H](C)NC(=O)[C@@H]1CSSC[C@H](NC(=O)[C@H](CCCNC(=N)N)NC(=O)CC[C@H](NC(=O)CCCCCCCCCCCCCCCCCCC(=O)O)C(=O)O)C(=O)N[C@@H](CC(N)=O)C(=O)N[C@@H]([C@@H](C)O)C(=O)N[C@@H](C)C(=O)N[C@@H]([C@@H](C)O)C(=O)N1)[C@@H](C)O [Compound 65, [19CD]-isoGlu-R-C( )-NTAT-C( )-ATQRLADFLQRSSF-Gly(Me)-A-Ile(Me)-LSSTEVGSNTP-NH2] ({C20 diacid-γGlu}-RCNTATCATQRLADFLQRSSF[Sar]A[NMeI]LSSTEVGSNTP-NH2; disulfide 2-7)	A (A = >90%)	A (A = >90%)	A (A = >90%)	A (A = >90%)	0.26	0.14	–	–	–	–	–	–

From patent US20210115104A1, “AMYLIN ANALOGUES” (Zealand Pharma A/S, priority 2015, published 2021)
